In publication PMC4645123, “Catestatin attenuates endoplasmic reticulum induced cell apoptosis by activation type 2 muscarinic acetylcholine receptor in cardiac ischemia/reperfusion” (Scientific Reports, 2015):

Columns and labels:
M2 receptors = settings: no reference given; cited from earlier work
Method: To investigate the interaction of CST with M2 receptor and as an endogenous ligand, we used radioactive isotope [^125-I]-labeled CST (0.4 μM) as a ligand, and N-methylscopolamine (NMS:0.045 nM to 0.3 μM) as a “cold” ligand were co-incubated with membrane protein (200 μg) in H9c2 cardiomyblasts.

isolated heart = assay: Langendorff-perfused heart, global ischemia/reperfusion (I/R) with CST pretreatment; set-up: species or system rat; settings: AF-DX116 pretreating for 20 min before CP, then I/R
Method: Rats fed a standard diet were heparinized (200 IU) and anesthetized with sodium pentobarbital (50 mg/kg, intraperitoneally). Hearts were excised and rapidly moved to a Langendorff perfusion system as described. After 30-min stabilization, hearts underwent 30-min normoxia, zero-flow global ischemia for 30 min, followed by 60-min reperfusion (I/R group). For the CP group, CST (100 nM) was infused for 15 min before ischemia (Fig. 1A). Cardiac function including left ventricular end diastolic pressure (LVEDP), LV systolic pressure (LVSP), and maximal and minimal LV pressure development (±dp/dtmax) were recorded. […] Images in each slice were analyzed by image pro plus software. The volume of infarcted tissue (white) and the risk zone (total) was then calculated by each area […] slice thickness and summing the results. The infarct size was expressed as the percentage of the risk zone[36]. Total 12 rats were sacrificed for the infarct size assay. Other rats, while finished I/R procedure, the apex of heart (about 100 mg) was quickly removed for western blot assay. The residual heart were cut about 5 mm high (from the site of apex), embedded with OCT then the frozen slice were prepared for apoptosis staining (Methods of western blot and apoptosis assay are available in the Supplementary methods online).

H9c2 cells = assay: cAMP assay (cAMP-Glo Max Assay Kit); format: cell-based, rat; settings: for effect of antagonist on CST lowering of isoproterenol-induced cAMP / effect of antagonist on CST lowering of forskolin-induced cAMP: AF-DX116 100 nM or himbacine 1 μM 20 min; for effect of antagonist on CST lowering of isoproterenol-induced cAMP: then CST 50 nM with isoproterenol 1 μM; for effect of antagonist alone on increased cAMP level with isoproterenol: AF-DX116 100 nM or himbacine 1 μM, 20 min pretreatment, isoproterenol 1 μM; for effect of antagonist on CST lowering of forskolin-induced cAMP: pirenzepine 1 μM, then CST 50 nM with forskolin 100 μM
Method: H9c2 cells were subcultured at 1 x 10^4 cells in 96-well plates. Cell were pretreated with […]
pirenzepine (1 μM), AF-DX116 (100 nM) or himbacine (1 μM) for 20 min, then incubated with CST (50 nM) or carbamoylcholine (100 μM) along with isoproterenol (1 μM) or forskolin (100 μM) for 30 min. Cell underwent cAMP assay with the cAMP-Glo Max Assay

M2 receptor = settings: read-out: KD values, binding ability to M2 receptor; cited from earlier work
Source text: Muscarinic receptor expression is abundant in ventricular muscle. Acetylcholine has protective role in cardiac I/R in vitro, but it is non-selective ligand and activates all cholinergic receptor subtype, which limited its application due to enormous side effects. Here we identified that CST is a selective ligand of M2 receptor with high affinity and its intracellular signal (cAMP, PI3 K and ERK1/2) is consistent with M2 receptor agonist.

H9c2 cardiomyoblasts = assay: Apoptosis (cleaved caspase-3 staining) in cells under A/R or ER stress inducers; format: cell-based, rat; settings: PD98059 20 μM or wortmannin 10 nM for 30 min, then CST 100 nM 30 min
Method: H9c2 rat cardiomyoblasts or neonatal cardiomyocytes were cultured in DMEM with 10% fetal bovine serum (FBS) and 1% penicillin/streptomycin at 37 °C, 5% CO2. Medium was changed to fresh medium (serum-free), and cells were cultured under anoxia with 95% N2 and 5% CO2 for 12 h at 37 °C, then incubated in a standard incubator for 4 h (A/R)[38]. […] page 1: Catestatin attenuates endoplasmic reticulum induced cell apoptosis by activation type 2 muscarinic acetylcholine receptor in cardiac ischemia/reperfusion Feng Liao1*, Yang Zheng1*, Junyan Cai1, Jinghui Fan1, Jing Wang1, Jichun Yang1,2, Qinghua Cui1,2, Guoheng Xu1, Chaoshu Tang1, Bin Geng1,2 1. Department of Physiology and Pathophysiology, School of Basic Medical Science, Peking University, P.R. China. 2. Center for Noncoding RNA Medicine, Peking University Health Science Center Online Methods 1. Western blot analysis Cultured H9c2 cells or rat hearts were lysed in RIPA lysis buffer (Cell Signaling). Proteins were denatured and 50 μg protein was loaded and isolated by SDS-PAGE electrophoresis, then transferred to a nitrocellulose membrane. […] The antigens were detected by the chemiluminescence method (ECL western blot detection kit, Applygen) with horseradish peroxidase-linked anti-mouse or anti-rabbit secondary antibody. […] Images were captured by fluorescence microscopy and apoptotic cells were analyzed by use of Image-Pro Plus. […]

[1] = system: ischemic-reperfused rat heart; settings: peptide 100 nM treatment for 2 h during reperfusion phase; cited from earlier work
Method: Firstly we identified the endogenous CST reducing after I/R, but its precursor ChgA expression were no changes. That means increased enzymes (which catalyzed ChgA to generate CST) activity during I/R, although the enzymes were not identified until now. CST pretreatment compensated to endogenous CST decrease, thus lowered the infarct size and improved cardiac function in rats under I/R, which agreed with studies of CST post-conditioning[16][17]. However, human wild type CST (100 nM) treatment for 2 h during reperfusion phase increased, but Gly^364Ser variant peptide lowered infarct size; becaus ...

[2] = molecular target: T1, M2 muscarinic acetylcholine receptor (Rattus norvegicus, UniProt P10980); assay: radioligand binding (Scatchard)
T1 chain: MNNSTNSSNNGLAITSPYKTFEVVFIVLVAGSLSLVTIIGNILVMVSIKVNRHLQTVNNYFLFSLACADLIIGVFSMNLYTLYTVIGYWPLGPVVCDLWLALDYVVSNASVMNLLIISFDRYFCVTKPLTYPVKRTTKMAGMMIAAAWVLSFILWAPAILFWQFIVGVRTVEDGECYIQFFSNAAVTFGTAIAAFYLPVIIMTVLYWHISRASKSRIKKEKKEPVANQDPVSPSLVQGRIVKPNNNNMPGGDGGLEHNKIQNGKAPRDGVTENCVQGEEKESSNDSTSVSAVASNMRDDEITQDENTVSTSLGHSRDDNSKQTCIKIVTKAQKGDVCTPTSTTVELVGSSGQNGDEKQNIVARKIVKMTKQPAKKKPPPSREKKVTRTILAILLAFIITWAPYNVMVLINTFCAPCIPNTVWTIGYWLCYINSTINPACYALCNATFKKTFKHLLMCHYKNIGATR

[3] = molecular target: T1, M2 muscarinic acetylcholine receptor; assay: radioligand competition binding

CCN(CC)CC1CCCCN1CC(=O)N1c2ccccc2C(=O)Nc2cccnc21 (centres unmarked) [AF-DX116, Otenzepad]
IC50 (M2 receptors): 50 nM | effect on the protective effects of CP on infarct size, LDH leakage and cTNI level (isolated heart): blocked | effect of antagonist on CST lowering of isoproterenol-induced cAMP (H9c2 cells): blocked | effect of antagonist alone on increased cAMP level with isoproterenol (H9c2 cells): did not affect | effect of antagonist on CST lowering of forskolin-induced cAMP (H9c2 cells): blocked

COc1ccc2cc3[n+](cc2c1OC)CCc1cc2c(cc1-3)OCO2 [Berberine]
Kd (M2 receptor): 5400 nM

COc1cccc(-c2cc(=O)c3ccccc3o2)c1N [PD98059]
effect of inhibitor on CST protection on cell apoptosis (H9c2 cardiomyoblasts): reversed

C[N+](C)(C)CCOC(N)=O [carbamoylcholine]
cAMP level induced by isoproterenol (H9c2 cells; CST 50 nM or carbamoylcholine 100 μM with isoproterenol 1 μM for 30 min): lowered

C[C@@H]1OC(=O)[C@H]2C[C@H]3CCCC[C@@H]3[C@@H](/C=C/[C@H]3CCC[C@H](C)N3C)[C@@H]12 [himbacine]
effect of antagonist on CST lowering of isoproterenol-induced cAMP (H9c2 cells): blocked | effect of antagonist alone on increased cAMP level with isoproterenol (H9c2 cells): did not affect | effect of antagonist on CST lowering of forskolin-induced cAMP (H9c2 cells): blocked

COC[C@H]1OC(=O)c2coc3c2[C@@]1(C)C1=C(C3=O)[C@@H]2CCC(=O)[C@@]2(C)C[C@H]1OC(C)=O [wortmannin]
effect of inhibitor on CST protection on cell apoptosis (H9c2 cardiomyoblasts): reversed

Gly^364Ser variant peptide: Gly364Ser variant of human catestatin
infarct size [1]: lowered

SSMKLSFRARGYGFRGPGPQL
Kd [2]: 18.6 nM | IC50 [3]: 25.7 nM

SSMKLSFRARGYGFRGPGPQL (AF-DX116 50 nM)
Kd [2]: 45.8 nM | IC50 [3]: 36 nM
